Patent publication US11672795B2, “Compositions and methods for treating pulmonary vascular disease” (UNIVERSITY OF PITTSBURGH-OF THE COMMONWEALTH SYSTEM OF …, priority 2016, dated 2023)

Tests used:
PAECs [1] = assay: Proliferation of PAECs (cell count, BrdU pulse, PCNA staining); type: cell-based, human
Procedure: A-C) PAECs were plated on soft (1 kPa) or stiff (50 kPa) matrix and exposed to indicated treatments. Apoptosis (A-C) and proliferation (B-C) were quantified 48 h after plating. […] Apoptosis (as reflected by cleaved caspase-3 staining, CC-3+) was increased by serum starvation in both soft and stiff conditions but was not affected by GLS1 inhibition. In all panels, mean expression in control groups (soft matrix) was assigned a fold change of 1, to which relevant samples were compared. Data are expressed as mean±SD (*P<0.05; ** P<0.01, ***P<0.001).
(§1) After various indicated treatments, cultured cells were fixed with PBS/PFA 4% for 10 min and permeabilized with PBS/Triton 100×0.1% for 10 min. The cells were then incubated with anti-PCNA (#4912; 1/100; Invitrogen), anti-Ki67 (ab15580; 1/200; Abcam), and/or anti-cleaved caspase-3 (1/200; Cell Signaling) at room temperature for 2 hours. Secondary antibodies coupled with Alexa-594 and/or Alexa-488 (Thermo Scientific) were used at 1/500. Nuclei were counterstained with DAPI (Sigma).
After specified pre-treatment or transfection protocols as indicated, PAECs or PASMCs were plated in triplicate in 6 well plates at 30 000 cells per well. After overnight incubation for cells to adhere, 6 wells were counted to determine initial count at time of treatments (glutamate, aspartate, BPTES, DON or C968). After 2 days, 4 days or 6 days, the contents of the wells were trypsinized and counted, and proliferation rate was calculated.
Exponentially growing cells were plated in the indicated matrix for 48 hours.

PAAFs [2] = assay: PAAF-dependent ECM remodelling on cytokine stimulation (RT-qPCR, picrosirius red); type: cell-based; details: stimulation by pro-inflammatory cytokines (EDN1, IL6 or TGF-b)
Excerpt: (§2) A-C) Pharmacological inhibition of GLS1 by either BPTES, C968 or CB839 blunted metabolic activation of PAAFs cultivated on stiff matrix as reflected by decreased glutaminolysis (A), glycolysis (B) and aspartate production (C). D-E) Pharmacological inhibition of GLS1 by either BPTES, C968 or CB839 decreased PAAFs dependent ECM remodelling upon stimulation by pro-inflammatory cytokines (EDN1, IL6 or TGF-b). […] G-H) Fibrilar collagen visualization (G) and quantification (H) by picrosirius red staining confirmed a decreased of ECM remodelling by activated PAAF (TGF-b) in presence of GLS1 inhibitors. I-M) PAAFs were cultivated upon indicated treatments. Cells were removed and pulmonary arterial endothelial cells (PAECs) were cultivated on the matrix synthesized by the PAAF. […] Data are expressed as mean±SEM (*P<0.05, § P<0.01, #P<0.001) of at least 3 independent experiments performed in triplicate. Paired samples were compared by 2-tailed Student's t test, while 1-way ANOVA and post-hoc Tukey's tests were used for group comparisons.
Messenger RNAs were reverse transcribed using the Multiscript RT kit (Life Technologies) to generate cDNA. cDNA was amplified via fluorescently labeled Taqman primer sets using an Applied Biosystems 7900HT Fast Real Time PCR device. To specifically determine the relative expression of the two GLS1 isoforms KGA and GAC, TaqMan gene expression assays Hs01014019_m1 and Hs01022166_m1 were used respectively. Fold-change of RNA species was calculated using the formula (2^−ΔΔCt), normalized to RPLP0 expression.
Picrosirius Red stain was achieved through the use of 5 μm paraffin sections stained with 0.1% Picrosirius Red (Direct Red80, Sigma-Aldrich) and counterstained with Weigert's hematoxylin to reveal fibrillar collagen. The sections were then serially imaged using with an analyzer and polarizer oriented parallel and orthogonal to each other. Microscope conditions (lamp brightness, condenser opening, objective, zoom, exposure time, and gain parameters) were maintained throughout the imaging of all samples. A minimal threshold was set on appropriate control sections for each experiment in which only the light passing through the orthogonally-oriented polarizers representing fibrous structures (i.e., excluding residual light from the black background) was included. The threshold was maintained for all images across all conditions within each experiment. The area of the transferred regions that was covered by the thresholded light was calculated and at least 10 sections/vessel per condition were averaged together (NIH ImageJ software). Targeted LC-MS/MS

PAAFs [3] = assay: Metabolic activation of PAAFs cultivated on stiff matrix; type: cell-based
Excerpt: as §2

PAECs [4] = assay: Apoptosis of PAECs on soft or stiff matrix (caspase 3/7 activity, cleaved caspase-3 staining); type: cell-based, human
Procedure: A-C) PAECs were plated on soft (1 kPa) or stiff (50 kPa) matrix and exposed to indicated treatments. Apoptosis (A-C) and proliferation (B-C) were quantified 48 h after plating. […] In all panels, mean expression in control groups (soft matrix) was assigned a fold change of 1, to which relevant samples were compared. Data are expressed as mean±SD (*P<0.05; ** P<0.01, ***P<0.001).
as §1
Caspase 3/7 activity was quantified using the Caspase-Glo 3/7 Assay (Promega), according to manufacturer's instructions. Briefly, cells were plated on hydrogel of different stiffness and treated as described. Twenty four hours after plating, cells were cultured in the presence or absence of serum for twenty-four hours. Cells were then lysed and 10 μg of total protein were incubated for 1 h with the caspase substrates, and luminescence was quantified by plate reader (SynergyHTX multi-mode reader, Biotek).

GLS1 = assay: Targeted LC-MS/MS of intracellular metabolites in PAECs on soft or stiff matrix with GLS inhibitors; type: cell-based, human; details: BPTES 10 μM, DON 5 μM; for glutamate and aspartate / glutamine, pyruvate, and succinate / lactate: compared with stiff matrix control; for alterations of metabolite expression in stiff matrix (stiffness-induced glutamine consumption, glutamate production, aspartate production) / lactate/pyruvate ratio (glycolysis): C968 10 μM, stiff matrix
Procedure: HEK293T cells (American Type Culture Collection) were cultivated in DMEM containing 10% fetal bovine serum (FBS). Primary human pulmonary arterial endothelial cells (PAECs) were grown in EGM-2 cell culture media (Lonza), and experiments were performed at passages 3 to 6. Primary human pulmonary arterial smooth muscle cells (PASMCs) were cultured in SmGM-2 cell culture media (Lonza), and experiments were performed at passages 3 to 9. Inhibitors of GLS1 (2, 3): BPTES (Bis-2-(5-phenylacetamido-1,3,4-thiadiazol-2-yl)ethyl sulphide), DON (6-Diazo-5-oxo-L-norleucine), and C968 (Glutaminase Inhibitor, Compound 968, 5-(3-Bromo-4-(dimethylamino)phenyl)-2,2-dimethyl-2,3,5,6-tetrahydrobenzo[a]phenanthridin-4(1H)-one) were purchased from Sigma-Aldrich and used at concentration of 10 μM, 5 μM and 10 μM respectively. Glutamate was purchased from Sigma Aldrich and used at concentration of 2 mM. Aspartate was purchased from Sigma Aldrich and used at concentration of 10 mM.
Metabolite extraction was performed essentially as described with minor modifications (35). Briefly, metabolites were extracted from cultured cells and CD31+ cells on dry ice using 80% aqueous methanol pre-cooled at −80° C. Metabolites were extracted from plasma pre-cleared by centrifugation at 20,000×g for 10 min at 4° C. Supernatants were extracted with four volumes of 100% methanol pre-cooled at −80° C. for four hours at −80° C. An internal standard, [^13C4]-2-oxoglutarate (Cambridge Isotope Laboratories) was added during metabolite extraction. Insoluble material from both cell and plasma extractions was removed by centrifugation at 20,000×g for 15 min at 4° C. The supernatant was analysed by targeted LC-MS/MS as previously described (36). Metabolites were separated using a ZIC-HILIC stationary phase (150 mm×2.1 mm×[…]; Merck). The MS parameters were optimized using a glutamine standard solution. Monitored mass transitions were 87>87 (pyruvate), 115>73+99 (succinate), 132>88 (aspartate), 145>101 (20G), […] (glutamine), 146>128 (glutamate), and 149>105 ([^13C4]-20G). Mass transitions and retention time windows were confirmed by the analysis of neat and matrix-spiked standards. Peak areas were quantified by Xcalibur Software (Thermo) and manually reviewed.
To determine whether GLS1 is critical for stiffness-induced and YAP/TAZ-dependent glutaminolysis, PAECs were cultivated in soft or stiff matrix, and exposed to known inhibitors of two isoforms of GLS1 (KGA and GAC), BPTES (Bis-2-(5-phenylacetamido-1,3,4-thiadiazol-2-yl)ethyl sulphide), DON (6-Diazo-5-oxo-L-norleucine), or CB-968 (glutaminase inhibitor, compound 968, C-968) (FIG. 3A-C) or siRNA (si-GLS; FIG. 3D-G). As quantified by LC-MS/MS, inhibition of GLS in PAECs blunted the stiffness-induced processes of glutamine consumption, glutamate production, and aspartate production (FIGS. 3A and E). […] Similar alterations of metabolic activity were observed when inhibiting GLS1 in PASMCs (data not shown).

Row | SMILES | cellular proliferation in cells with diminished GLS1 or YAP/TAZ (PAECs [1]; PAECs or PASMCs with siRNA knockdown, glutamate 2 mM, aspartate 10 mM supplementation, data not shown) | PAAFs dependent ECM remodelling (PAAFs [2]) | aspartate production (PAAFs [3]) | glutaminolysis (PAAFs [3]) | glycolysis (PAAFs [3]) | metabolic activation of PAAFs (PAAFs [3]) | apoptosis (cleaved caspase-3 staining, CC-3+) (PAECs [4]; serum starvation, soft and stiff conditions) | caspase 3/7 activity (PAECs [4]; soft (1 kPa) or stiff (50 kPa) matrix, 24 h after serum depletion, vs vehicle control) | glutamate and aspartate (GLS1) | glutamine, pyruvate, and succinate (GLS1) | lactate (GLS1) | alterations of metabolite expression in stiff matrix (stiffness-induced glutamine consumption, glutamate production, aspartate production) (GLS1) | lactate/pyruvate ratio (glycolysis) (GLS1) | proliferation in stiff matrix (PCNA+) (PAECs [1]; PAECs, stiff matrix, 48 h after plating)
1 | N[C@@H](CCC(=O)O)C(=O)O [glutamate, Glutamate] | at least partially restored | – | – | – | – | – | – | – | – | – | – | – | – | –
2 | O=C(Cc1ccccc1)Nc1nnc(CCSCCc2nnc(NC(=O)Cc3ccccc3)s2)s1 [BPTES, Bis-2-(5-phenylacetamido-1,3,4-thiadiazol-2-yl)ethyl sulphide] | – | decreased | decreased | decreased | decreased | blunted | not affected | No significant changes | decreased | increased | decreased | blunted | decreased | decreased
3 | [N-]=[N+]=CC(=O)CC[C@H](N)C(=O)O [DON, 6-Diazo-5-oxo-L-norleucine] | – | – | – | – | – | – | – | – | decreased | increased | decreased | blunted | decreased | –
